The values that follow come from US20220370453A1 (Storm Therapeutics Ltd, priority 2019, published 2022).

Molecules are shown by their SMILES. pIC50: −log10 of the molar value.

Experiment [1] concerns the target T1, BCDIN3D (Homo sapiens, UniProt Q7Z5W3).
T1 sequence (Q7Z5W3 1-292): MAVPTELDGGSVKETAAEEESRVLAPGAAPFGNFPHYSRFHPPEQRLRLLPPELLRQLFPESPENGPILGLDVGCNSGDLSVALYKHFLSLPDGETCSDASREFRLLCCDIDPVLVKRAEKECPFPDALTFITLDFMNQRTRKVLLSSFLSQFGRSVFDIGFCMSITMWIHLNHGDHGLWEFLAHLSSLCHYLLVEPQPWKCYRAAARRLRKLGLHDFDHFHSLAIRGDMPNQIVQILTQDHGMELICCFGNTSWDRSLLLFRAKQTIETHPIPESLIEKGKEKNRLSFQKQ
As to the kind of experiment: BCDIN3D InCellPulse thermal stability assay in transfected A549 cells. In kind it is cell-based. As to conditions: transiently transfected A549 cells, heat shock 58° C. 15 min. The method, boiled down: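 Thermal stabilisation read-out: after a 15 min 58 °C heat shock, ePL-tagged BCDIN3D in transiently transfected A549 cells (1500/well) was quantified by enzyme-fragment complementation luminescence. Compounds were pre-incubated with cells 1 h at 37 °C, 0.6% DMSO final.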

In experiment [2] the target is T1, BCDIN3D. As to the kind of experiment: BCDIN3D IC50 RFMS (RapidFire) assay with mini-helix. In kind it is biochemical. The conditions noted are these: mini-helix substrate 0.2 μM, SAM 6 μM, 25 nM enzyme. The method, boiled down: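 SAH formation was measured by RapidFire mass spectrometry with D4- and 13C10-SAH internal standards after TCA quench. Substrates 6 μM SAM and 0.2 μM mini-helix reacted 1 h at 37 °C with 25 nM enzyme, which had been preincubated 10 min with compound (1% DMSO) in Tris pH 8.0 buffer with DTT, EDTA, BSA.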

One may read the pIC50 as −log10 of the IC50, conventionally taken in molar units. Read a high pIC50 as a small IC50. Take `Cc1nn(C)c2nc(NCC(N)c3ccccc3)nc(Nc3ccc(C(F)(F)F)cc3)c12` (stereo not drawn) [Compound 4.18, 6-N-(2-amino-2-phenylethyl)-1,3-dimethyl-4-N-[4-(trifluoromethyl)phenyl]pyrazolo[3,4-d]pyrimidine-4,6-diamine]: the negative-log IC50 (pIC50) against BCDIN3D [1] is 6.57; at BCDIN3D [2], 6.54.

Consider `Cn1ncc2c(Nc3ccc(C(F)(F)F)cc3)nc(NCC(C)(N)c3ccccc3)nc21` (stereo not drawn) [Compound 4.19, N6-(2-amino-2-phenyl-propyl)-1-methyl-N4-[4-(trifluoromethyl)phenyl]pyrazolo[3,4-d]pyrimidine-4,6-diamine], for which the results for the negative logarithm of the IC50 (pIC50) at BCDIN3D [1] and on BCDIN3D [2] were 7.06 and 7.44, respectively.

Consider `[2H]C([2H])([2H])n1ncc2c(Nc3ccc(C(F)(F)F)cc3)nc(NCC(N)c3ccccc3)nc21` (stereo not drawn) [Compound 4.20, N6-(2-amino-2-phenyl-ethyl)-1-(trideuteriomethyl)-N4-[4-(trifluoromethyl)phenyl]pyrazolo[3,4-d]pyrimidine-4,6-diamine], for which the values for the pIC50 at BCDIN3D [1] and on BCDIN3D [2] were 7.22 and 7.41, respectively.

As to `[2H]C([2H])([2H])n1ncc2c(Nc3ccc(C(F)(F)F)cc3)nc(NCC(C)(N)c3ccccc3)nc21` (stereo not drawn) [Compound 4.21, N6-(2-amino-2-phenyl-propyl)-1-(trideuteriomethyl)-N4-[4-(trifluoromethyl)phenyl]pyrazolo[3,4-d]pyrimidine-4,6-diamine], the values for the pIC50 at BCDIN3D [1] and against BCDIN3D [2] were 6.66 and 7.37, respectively.

For `Cn1ncc2c(Nc3ccc(C(F)(F)F)cc3)nc(NC[C@H](N)c3ccccc3)nc21` [Compound 4.22, 6-N-[(2R)-2-amino-2-phenylethyl]-1-methyl-4-N-[4-(trifluoromethyl)phenyl]pyrazolo[3,4-d]pyrimidine-4,6-diamine], the negative logarithm of the IC50 (pIC50) is 7.52 against BCDIN3D [1] and 7.47 against BCDIN3D [2].

Take `Cn1ncc2c(Nc3ccc(C(F)(F)F)cc3)nc(NC[C@@H](N)c3ccccc3)nc21` [Compound 4.23, 6-N-[(2S)-2-amino-2-phenylethyl]-1-methyl-4-N-[4-(trifluoromethyl)phenyl]pyrazolo[3,4-d]pyrimidine-4,6-diamine]: the negative-log IC50 (pIC50) at BCDIN3D [1] was 6.69; at BCDIN3D [2], 5.82.

Consider `[2H]C([2H])([2H])n1ncc2c(Nc3ccc(C(F)(F)F)cc3)nc(NC[C@H](N)c3ccccc3)nc21` [Compound 4.24, N6-[(2R)-2-amino-2-phenyl-ethyl]-1-(trideuteriomethyl)-N4-[4-(trifluoromethyl)phenyl]pyrazolo[3,4-d]pyrimidine-4,6-diamine], for which the negative-log IC50 (pIC50) against BCDIN3D [1] is 7.84; on BCDIN3D [2], 7.86.

As to `Cn1ncc2c(Nc3ccc(C(F)(F)F)nc3)nc(NCC(N)c3ccccc3)nc21` (stereo not drawn) [Compound 4.25, 6-N-(2-amino-2-phenylethyl)-1-methyl-4-N-[6-(trifluoromethyl)pyridin-3-yl]pyrazolo[3,4-d]pyrimidine-4,6-diamine], the pIC50 against BCDIN3D [1] is 6.50; against BCDIN3D [2], 7.29.

In the case of `Cn1ncc2c(Nc3ccc(C(F)(F)F)nc3)nc(NCC(C)(N)c3ccccc3)nc21` (stereo not drawn) [Compound 4.26, 6-N-(2-amino-2-phenylpropyl)-1-methyl-4-N-[6-(trifluoromethyl)pyridin-3-yl]pyrazolo[3,4-d]pyrimidine-4,6-diamine], the pIC50 is 6.42 against BCDIN3D [1] and 7.66 at BCDIN3D [2].

Regarding `[2H]C([2H])([2H])n1ncc2c(Nc3ccc(C(F)(F)F)nc3)nc(NCC(C)(N)c3ccccc3)nc21` (stereo not drawn) [Compound 4.27, N6-(2-amino-2-phenyl-propyl)-1-(trideuteriomethyl)-N4-[6-(trifluoromethyl)-3-pyridyl]pyrazolo[3,4-d]pyrimidine-4,6-diamine], the pIC50 on BCDIN3D [1] was 6.21; against BCDIN3D [2], 7.33.

`Cn1ncc2c(Nc3ccc(OC(F)F)nc3)nc(NCC(N)c3ccccc3)nc21` (stereo not drawn) [Compound 4.28, N6-(2-amino-2-phenyl-ethyl)-N4-[6-(difluoromethoxy)-3-pyridyl]-1-methyl-pyrazolo[3,4-d]pyrimidine-4,6-diamine]: the negative-log IC50 (pIC50) against BCDIN3D [1] was 6.50; on BCDIN3D [2], 6.83.

Take `Cn1ncc2c(Nc3ccc(OC(F)F)nc3)nc(NCC(C)(N)c3ccccc3)nc21` (stereo not drawn) [Compound 4.29, N6-(2-amino-2-phenyl-propyl)-N4-[6-(difluoromethoxy)-3-pyridyl]-1-methyl-pyrazolo[3,4-d]pyrimidine-4,6-diamine]: the values for the pIC50 at BCDIN3D [1] and on BCDIN3D [2] were 6.28 and 6.94, respectively.

Take `Cn1ncc2c(Nc3ccc(Cl)cc3)nc(NC[C@H](N)c3ccccc3)nc21` [Compound 4.30, N6-[(2R)-2-amino-2-phenyl-ethyl]-N4-(4-chlorophenyl)-1-methyl-pyrazolo[3,4-d]pyrimidine-4,6-diamine]: the pIC50 against BCDIN3D [1] is 7.20; at BCDIN3D [2], 7.54.

With `Cn1ncc2c(Nc3ccc(Cl)cc3)nc(NC[C@@H](N)c3ccccc3)nc21` [Compound 4.31, N6-[(2S)-2-amino-2-phenyl-ethyl]-N4-(4-chlorophenyl)-1-methyl-pyrazolo[3,4-d]pyrimidine-4,6-diamine], the negative-log IC50 (pIC50) was 4.22 at BCDIN3D [1] and 5.13 against BCDIN3D [2].

`COc1ccc(Nc2nc(NC[C@H](N)c3ccccc3)nc3c2cnn3C)cc1` [Compound 4.32, N6-[(2R)-2-amino-2-phenyl-ethyl]-N4-(4-methoxyphenyl)-1-methyl-pyrazolo[3,4-d]pyrimidine-4,6-diamine]: the results for the pIC50 at BCDIN3D [1] and on BCDIN3D [2] were 6.85 and 7.02, respectively.

For `CC(C)Oc1ccc(Nc2nc(NC[C@H](N)c3ccccc3)nc3c2cnn3C)cc1` [Compound 4.33, N6-[(2R)-2-amino-2-phenyl-ethyl]-N4-(4-isopropoxyphenyl)-1-methyl-pyrazolo[3,4-d]pyrimidine-4,6-diamine], the figures for the pIC50 at BCDIN3D [1] and against BCDIN3D [2] were 7.42 and 7.19, respectively.

Consider `Cn1ncc2c(Nc3ccc(F)c(F)c3)nc(NC[C@H](N)c3ccccc3)nc21` [Compound 4.34, N6-[(2R)-2-amino-2-phenyl-ethyl]-N4-(3,4-difluorophenyl)-1-methyl-pyrazolo[3,4-d]pyrimidine-4,6-diamine], for which the pIC50 is 6.79 against BCDIN3D [1] and 6.93 on BCDIN3D [2].

`CN(C)c1ccc(Nc2nc(NC[C@H](N)c3ccccc3)nc3c2cnn3C)cc1` [Compound 4.35, N6-[(2R)-2-amino-2-phenyl-ethyl]-N4-[4-(dimethylamino)phenyl]-1-methyl-pyrazolo[3,4-d]pyrimidine-4,6-diamine]: the pIC50 is 6.85 on BCDIN3D [1] and 6.84 against BCDIN3D [2].

With `CNc1nc(NCC(N)c2ccccc2)nc2c1cnn2C` (stereo not drawn) [Compound 4.36, 6-N-(2-amino-2-phenylethyl)-4-N,1-dimethylpyrazolo[3,4-d]pyrimidine-4,6-diamine], the pIC50 against BCDIN3D [1] is 5.73; on BCDIN3D [2], 6.26.

For the molecule `[2H]C([2H])([2H])n1ncc2c(NC)nc(NCC(N)c3ccccc3)nc21` (stereo not drawn) [Compound 4.38, 6-N-(2-amino-2-phenylethyl)-4-N-methyl-1-(trideuteriomethyl)pyrazolo[3,4-d]pyrimidine-4,6-diamine], the pIC50 on BCDIN3D [1] was 5.02; against BCDIN3D [2], 5.09.

Turning to `CNc1nc(NCC(C)(N)c2ccccc2)nc2c1cnn2C` (stereo not drawn) [Compound 4.39, 6-N-(2-amino-2-phenylpropyl)-4-N,1-dimethylpyrazolo[3,4-d]pyrimidine-4,6-diamine], the pIC50 is 4.77 against BCDIN3D [1] and 5.04 against BCDIN3D [2].

For the molecule `CNc1nc(NC[C@H](N)c2ccccc2)nc2c1cnn2C` [Compound 4.40, 6-N-[(2R)-2-amino-2-phenylethyl]-4-N,1-dimethylpyrazolo[3,4-d]pyrimidine-4,6-diamine], the values for the pIC50 against BCDIN3D [1] and against BCDIN3D [2] were 5.32 and 5.44, respectively.

`CCNc1nc(NCC(N)c2ccccc2)nc2c1cnn2C` (stereo not drawn) [Compound 4.41, 6-N-(2-amino-2-phenylethyl)-4-N-ethyl-1-methylpyrazolo[3,4-d]pyrimidine-4,6-diamine]: the pIC50 against BCDIN3D [1] is 5.48; on BCDIN3D [2], 6.02.

For `CCN(C)c1nc(NCC(N)c2ccccc2)nc2c1cnn2C` (stereo not drawn) [Compound 4.42, 6-N-(2-amino-2-phenylethyl)-4-N-ethyl-4-N,1-dimethylpyrazolo[3,4-d]pyrimidine-4,6-diamine], the values for the negative logarithm of the IC50 (pIC50) on BCDIN3D [1] and against BCDIN3D [2] were 5.12 and 5.64, respectively.

As for `Cn1ncc2c(NC3CC3)nc(NCC(N)c3ccccc3)nc21` (stereo not drawn) [Compound 4.43, 6-N-(2-amino-2-phenylethyl)-4-N-cyclopropyl-1-methylpyrazolo[3,4-d]pyrimidine-4,6-diamine], the figures for the pIC50 on BCDIN3D [1] and against BCDIN3D [2] were 5.38 and 5.59, respectively.

Regarding `Cn1ncc2c(NCC(F)(F)F)nc(NCC(N)c3ccccc3)nc21` (stereo not drawn) [Compound 4.44, 6-N-(2-amino-2-phenylethyl)-1-methyl-4-N-(2,2,2-trifluoroethyl)pyrazolo[3,4-d]pyrimidine-4,6-diamine], the negative-log IC50 (pIC50) at BCDIN3D [1] is 6.00; against BCDIN3D [2] it was 6.28.

Regarding `Cn1ncc2c(NCC(F)(F)F)nc(NC[C@H](N)c3ccccc3)nc21` [Compound 4.45, N6-[(2R)-2-amino-2-phenyl-ethyl]-1-methyl-N4-(2,2,2-trifluoroethyl)pyrazolo[3,4-d]pyrimidine-4,6-diamine], the pIC50 against BCDIN3D [1] is 6.38; at BCDIN3D [2] it was 6.50.
